Measured values as given in patent publication US8541373B2, “BChE albumin fusions for the treatment of cocaine abuse” (priority 2009, dated 2013).
“And” between values parts separate entries of the source, which are not always exact repeats. Equal entries are not always repeated.

How the values were obtained:
[1] = AlbuBChE antibodies and blood level after repeated AlbuBChE injections
Description: The monkeys trained to self-administer cocaine and also tested on the reinstatement procedure received a total of 4 injections of AlbuBChE. Blood was taken for determination of AlbuBChE antibodies after the first, second and fourth AlbuBChE injections.

cocaine [2] = experiment: Plasma cocaine, ecgonine methyl ester and benzoylecgonine after IV cocaine post-AlbuBChE; format: in vivo, Squirrel monkeys; conditions: for Benzoylecgonine Plasma Concentration, Mean / Cocaine Plasma Concentration, Mean / Ecgonine methyl ester plasma concentration (mean): mean n=3
Method: Blood was placed into K2EDTA blood collection tubes with esterase inhibitor (diisopropylfluorophosphate (DFP). Tubes were inverted several times and placed on wet ice upon collection. Samples were centrifuged at 2-8° C. within 45 minutes of collection. The resultant plasma will be recovered and a single 200 μL aliquot of plasma was placed into polypropylene tubes. Plasma samples was frozen over dry ice and stored at approximately −70° C.
The bioanalytical method measured the plasma concentration of cocaine and two of its metabolites: ecgonine methyl ester and benzoylecgonine. Cocaine metabolic pathway is shown in FIG. 9, ecgonine methyl ester metabolite is formed directly from cocaine through the butrylcholine esterase enzyme. As such, this metabolite can be predicted to increase following AlbuBChE administration.
(§1) The blood level data were analyzed separately for each metabolite and time point (5 or 30 min). A one-way analysis-of-variance (ANOVA) was performed with follow-up Dunnett tests using the results of monkeys treated with vehicle as the control. The self-administration data were analyzed separately for response rate or injections following either vehicle treatment or AlbuBChE treatment. Control data were included in the analysis by taking the average of the last 3 days for the immediately preceding baseline condition. A within subjects ANOVA was then performed with follow-up tests contrasting days following vehicle or AlbuBChE with the control. For the reinstatement tests, a two-way ANOVA was performed for both response rate and injections, with time post vehicle or AlbuBChE as the within-subjects factor and pretreatment (vehicle or AlbuBChE) as the between subjects factor. Follow-up contrast compared vehicle and AlbuBChE at each time point.

cocaine [3] = experiment: Effect of AlbuBChE pretreatment on cocaine-induced cardiovascular and body temperature changes; format: in vivo, cynomolgus monkeys
Method: The effect of pretreatment with AlbuBChE prior to cocaine dose on CV parameters was tested on the second group (Group 2) of animals (3 males and 3 females). First baseline CV parameters were recorded on SD 15 after an IM administration of AlbuBChE formulation buffer followed by a single IV administration of saline (cocaine vehicle), 3 hours later. The effect of cocaine on CV parameters was measured on SD 18, on which the animals received a single IM injection of AlbuBChE formulation buffer followed by a single IV dose of cocaine (1 mg/kg, IV), 3 hours later.
The effect of pretreatment with AlbuBChE on cocaine-induced changes in CV parameters was monitored on SD 22. CV parameters were recorded subsequent to a single IM dose of AlbuBChE (15 mg/kg) followed by a single IV dose of cocaine (1 mg/kg), 3 hours later (see Table 21).

[4] = tested on: cocaine-induced reinstatement; experiment: Reinstatement of cocaine self-administration; format: in vivo, squirrel monkeys (Saimiri sciureus)
Method: as §1, with “A one-way analysis-of-variance (ANOVA) was performed with follow-up Dunnett tests using the results of monkeys treated with vehicle as the control.” left out

[5] = rats; cited from earlier work
[6] = 5 min after cocaine 1 mg/kg IV given 2 hr post-AlbuBChE 5 mg/kg IM, individual monkeys 547, 3434, 53B
[7] = 5 min after cocaine 1 mg/kg IV given 72 hr post-AlbuBChE 5 mg/kg IM, individual monkeys
[8] = 5 min after cocaine 1 mg/kg IV given 96 hr post-AlbuBChE 5 mg/kg IM, individual monkeys
[9] = 5 min after cocaine 1 mg/kg IV, 2 hr post-AlbuBChE 5 mg/kg IM
[10] = 5 min after cocaine 1 mg/kg IV, 72 hr post-AlbuBChE 5 mg/kg IM
[11] = 5 min after cocaine 1 mg/kg IV, 96 hr post-AlbuBChE 5 mg/kg IM
[12] = 30 min after cocaine 1 mg/kg IV given 2 hr post-AlbuBChE 5 mg/kg IM, individual monkeys
[13] = 30 min after cocaine 1 mg/kg IV given 72 hr post-AlbuBChE 5 mg/kg IM, individual monkeys
[14] = 30 min after cocaine 1 mg/kg IV given 96 hr post-AlbuBChE 5 mg/kg IM, individual monkeys
[15] = 30 min after cocaine 1 mg/kg IV, 2 hr post-AlbuBChE 5 mg/kg IM
[16] = 30 min after cocaine 1 mg/kg IV, 72 hr post-AlbuBChE 5 mg/kg IM
[17] = 30 min after cocaine 1 mg/kg IV, 96 hr post-AlbuBChE 5 mg/kg IM
[18] = 15 mg/kg IM 3 hours before cocaine 1 mg/kg IV

With AlbuBChE the AlbuBChE antibody levels ([1]; following the first 2 injections, level of detection titer 20) was “below the level of detection”, the “AlbuBChE antibody titer, individual monkeys” value ([1]; following the fourth injection) was 21 and 43 and 643 and the “Concentration of AlbuBChE in the blood, individual monkeys” value ([1]; one week following the AlbuBChE injection (fourth)) was 27 ng/mL and 55 ng/mL and 53 ng/mL. For the same substance, the “Ecgonine methyl ester concentration increase over control” value (cocaine [2]; 5 mg/kg IM, 2 hr post-AlbuBChE, 5 min after cocaine) was ~40 fold, the “Cocaine concentration relative to control” value (cocaine [2]; 5 mg/kg IM, cocaine 1 mg/kg IV 96 hr post-AlbuBChE) was 60 % of control and the “Benzoylecgonine Plasma Concentration” value (cocaine [2]; [6]) was 4.83 ng/mL and 23.3 ng/mL and 20.1 ng/mL. The “Cocaine Plasma Concentration” value (cocaine [2]; [6]) was 0.575 ng/mL and 20.0 ng/mL and 22.4 ng/mL, the “Ecgonine Methyl Ester Plasma Concentration” value (cocaine [2]; [6]) was 109 ng/mL and 417 ng/mL and 333 ng/mL and the “Benzoylecgonine Plasma Concentration” value (cocaine [2]; [7]) was 9.93 ng/mL and 41.7 ng/mL and 28.8 ng/mL. The “Cocaine Plasma Concentration” value (cocaine [2]; [7]) was 41.3 ng/mL and 176 ng/mL and 104 ng/mL, the “Ecgonine Methyl Ester Plasma Concentration” value (cocaine [2]; [7]) was 29.3 ng/mL and 101 ng/mL and 73.2 ng/mL and the “Benzoylecgonine Plasma Concentration” value (cocaine [2]; [8]) was 15.5 ng/mL and 36.2 ng/mL and 26.3 ng/mL. For the same substance, the “Cocaine Plasma Concentration” value (cocaine [2]; [8]) was 97.9 ng/mL and 191 ng/mL and 112 ng/mL, the “Ecgonine Methyl Ester Plasma Concentration” value (cocaine [2]; [8]) was 40.5 ng/mL and 72.3 ng/mL and 35.8 ng/mL and the “Benzoylecgonine Plasma Concentration, Mean” value (cocaine [2]; [9]) was 16.1 ng/mL. The “Cocaine Plasma Concentration, Mean” value (cocaine [2]; [9]) was 14.3 ng/mL, the “Ecgonine methyl ester plasma concentration (mean)” value (cocaine [2]; [9]) was 286 ng/mL and the “Benzoylecgonine Plasma Concentration, Mean” value (cocaine [2]; [10]) was 26.8 ng/mL. The “Cocaine Plasma Concentration, Mean” value (cocaine [2]; [10]) was 107 ng/mL, the “Ecgonine methyl ester plasma concentration (mean)” value (cocaine [2]; [10]) was 67.8 ng/mL and the “Benzoylecgonine Plasma Concentration, Mean” value (cocaine [2]; [11]) was 26.0 ng/mL. The “Cocaine Plasma Concentration, Mean” value (cocaine [2]; [11]) was 134 ng/mL, the “Ecgonine methyl ester plasma concentration (mean)” value (cocaine [2]; [11]) was 49.5 ng/mL and the “Benzoylecgonine Plasma Concentration” value (cocaine [2]; [12]) was 11.1 ng/mL and 20.8 ng/mL and 10.9 ng/mL. For the same substance, the “Cocaine Plasma Concentration” value (cocaine [2]; [12]) was 0.581 ng/mL and 0.115 ng/mL and 0.261 ng/mL, the “Ecgonine Methyl Ester Plasma Concentration” value (cocaine [2]; [12]) was 252 ng/mL and 314 ng/mL and 218 ng/mL and the “Benzoylecgonine Plasma Concentration” value (cocaine [2]; [13]) was 20.7 ng/mL and 33.4 ng/mL and 21 ng/mL. The “Cocaine Plasma Concentration” value (cocaine [2]; [13]) was 65.0 ng/mL and 57.9 ng/mL and 44.9 ng/mL, the “Ecgonine Methyl Ester Plasma Concentration” value (cocaine [2]; [13]) was 61.3 ng/mL and 112 ng/mL and 81.7 ng/mL and the “Benzoylecgonine Plasma Concentration” value (cocaine [2]; [14]) was 18.9 ng/mL and 37.6 ng/mL and 21.5 ng/mL. The “Cocaine Plasma Concentration” value (cocaine [2]; [14]) was 62.9 ng/mL and 75.6 ng/mL and 67.1 ng/mL, the “Ecgonine Methyl Ester Plasma Concentration” value (cocaine [2]; [14]) was 25.7 ng/mL and 76.8 ng/mL and 45.2 ng/mL and the “Benzoylecgonine Plasma Concentration, Mean” value (cocaine [2]; [15]) was 14.3 ng/mL. The “Cocaine Plasma Concentration, Mean” value (cocaine [2]; [15]) was 0.319 ng/mL, the “Ecgonine methyl ester plasma concentration (mean)” value (cocaine [2]; [15]) was 261 ng/mL and the “Benzoylecgonine Plasma Concentration, Mean” value (cocaine [2]; [16]) was 25.0 ng/mL. The “Cocaine Plasma Concentration, Mean” value (cocaine [2]; [16]) was 55.9 ng/mL, the “Ecgonine methyl ester plasma concentration (mean)” value (cocaine [2]; [16]) was 85.0 ng/mL and the “Benzoylecgonine Plasma Concentration, Mean” value (cocaine [2]; [17]) was 26.0 ng/mL. For the same substance, the “Cocaine Plasma Concentration, Mean” value (cocaine [2]; [17]) was 68.5 ng/mL, the “Ecgonine methyl ester plasma concentration (mean)” value (cocaine [2]; [17]) was 49.2 ng/mL and the “Cocaine blood levels vs vehicle control” value (cocaine [2]; 2 hours following AlbuBChE, 5- and 30-min time points) was “significantly reduced”. The “Blood levels of BZ vs vehicle control” value (cocaine [2]; 2 hr following AlbuBChE) was “not significant”, the “Blood levels of EME vs vehicle control” value (cocaine [2]; 2 hr following AlbuBChE, 5- and 30 min time point) was “elevated” and the “Cocaine blood levels vs vehicle control” value (cocaine [2]; 72 hours following AlbuBChE, 30-min post cocaine) was “significantly below control levels”. For the same substance, the “Blood levels of EME vs vehicle control” value (cocaine [2]; 72 hours following AlbuBChE, 30 min time point) was “significantly elevated”, the “Cocaine blood levels vs vehicle control” value (cocaine [2]; 96 hours following AlbuBChE, 5 or 30 min time point) was “not significant” and the “Duration of decreased amount of cocaine in the blood” value (cocaine [2]; Squirrel monkeys, 5 mg/kg) was “at least 72 hours”. The “Maximum blood pressure after cocaine” value (cocaine [3]; [18]) was “decreased”, the “Truncation of time to reversal of blood pressure effect” value (cocaine [3]; [18]) was 4.5 fold and the “Time to reversal of cocaine-induced increase in mean arterial blood pressure” value (cocaine [3]; 15 mg/kg IM 3 hours before cocaine 1 mg/kg IV (77 minutes with cocaine alone)) was 17 min. For the same substance, the “Body temperature after cocaine” value (cocaine [3]; 15 mg/kg IM pre-treatment, cocaine 1 mg/kg IV, base line 38° C. (38.7° C. with cocaine alone)) was 38.3 °C, the “Cocaine-induced increase in heart rate” value (cocaine [3]; 15 mg/kg pre-treatment, cocaine 1 mg/kg IV (70% with cocaine alone)) was 30% and the “Time for heart rate to return to baseline after cocaine dose” value (cocaine [3]; 15 mg/kg pre-treatment, cocaine 1 mg/kg IV (2 hours with cocaine alone)) was 30 min. The “Peak heart rate after cocaine” value (cocaine [3]; 15 mg/kg pre-treatment, cocaine 1 mg/kg IV, baseline 140 (240 with cocaine alone)) was 182 beats/min, the “Reinstatement of responding (response rate and injections)” value ([4]; 5 mg/kg i.m., 0.3 mg/kg cocaine i.v., 2 hr time point) was “significantly blocked” and the “Reinstatement of responding (responses and injections)” value ([4]; 5 mg/kg, 0.1 mg/kg cocaine as reinstatement dose) was “significant at 2 hrs”. The “Side effects of intravenous administration” value [5] was “modest increase in blood pressure and mild lethargy”.
